Tests used:
[1] = system: blood D-glucose; assay: Glucagon eye drops with surfactant, blood D-glucose; details: 0.5% surfactant plus glucagon (30 μg) eye drops
Description: Glucagon absorption from the eye was measured in rats given eye drops containing various surfactants plus glucagon (30 μg) (Eli Lilly, Indianapolis, Ind.) by monitoring an elevation in blood D-glucose levels. In these experiments, rats were anesthetized with sodium pentobarbital rather than xylazine/ketamin.
Paired animals that receive eye drops containing the surfactant alone, or glucagon alone, were compared to animals receiving eye drops with the surfactant plus glucagon.

[2] = system: blood glucose; assay: Insulin eye drops with absorption enhancer in xylazine/ketamine anesthetized rats, blood glucose
[3] = Oral phenylephrine tablets with alkylsaccharide; assay type: in vivo, canine
Description: In a canine model, subjects were dosed orally with various phenylephrine (PE) tablet formulations, and blood samples were taken to determine the rate of parent phenyl ethyl phenylephrine absorption. Blood levels of parent phenylephrine were measured. Three subject groups were created with each alkylsaccharide test group containing five subjects in each test group. All subject groups received 10 mg of phenylephrine as a single tablet. Each subject was in the fasting state for overnight and two hours post dose. Blood samples were taken at pre-dose, 5, 10, 15, 30, 45 min., 1, 2, and 3 hours.
Comparator was the standard 30 mg (total weight including excipients) phenylephrine tablet was no absorption enhancer. Group number 2 tablets contain the alkylsaccharide designated A3, which is n-dodecyl-beta-D-maltoside in the amounts of 2.5 mg, 5 mg, and 7.5 mg, respectively. Group number three tablets contain the alkylsaccharide designated B3, which is sucrose monododecanoate, in the amounts of 5 mg, 10 mg, and 20 mg, respectively.

[4] = system: Staphylococcus aureus (ATCC No. 6538); assay: Log reduction of microorganisms in cultures with alkylglycoside; assay type: cell-based; details: for Log reduction of cultures: PBS pH 7, 1 mg/mL PYY; for Log reduction of microorganisms: PBS pH 7, […] BSA
Excerpt: (§1) 20110-2209. The viable microorganisms used in the invention were not more than five passages removed from the original ATCC culture. As described herein, one passage is defined as the transfer of organisms from an established culture to fresh medium and all transfers are counted.
(§2) The culture conditions for the inoculum culture is substantially as described in Table IV. For example, suitable media can include but is not limited to, Soybean-Casein Digest or Sabouraud Dextrose Agar Medium. […]
(§3) The suspension should be refrigerated if it is not used within 2 hours. To confirm the initial cfu per mL estimate, the number of cfu per mL in each suspension was determined using the conditions of media and microbial recovery incubation times listed in Table IV (e.g., from about 3 to about 7 days). This value serves to calibrate the size of inoculum used in the test. The bacterial and yeast suspensions were used within 24 hours of harvest; whereas the fungal preparation can be stored under refrigeration for up to 7 days.
(§4) To determine which alkylglycoside formulations have antibacterial activity, the formulations were prepared in phosphate buffered saline (PBS) at pH 7. As a source of nutrition, either 1.5 mg/mL bovine serum albumin (BSA; see Tables V and VI) or 1 mg/mL of PYY was added (see Table VII) to the medium. BSA (CAS Number: 9048-46-8) was obtained from Sigma-Aldrich, St. Louis, Mo., USA, n-dodecyl-4-O-α-D-glucopyranosyl-β-D-glucopyranoside and n-tetradecyl-4-O-α-D-glucopyranosyl-β-D-glucopyranoside were obtained from Anatrace Inc., Maumee, Ohio, USA, and PYY was obtained from Bachem California Inc., Torrance, Calif., USA.
(§5) Antibacterial activity of the alkylglycosides were conducted in four sterile, capped bacteriological containers of suitable size into which a sufficient volume of alkylglycoside solution had been transferred. Each container was inoculated with one of the prepared and standardized inoculums and mixed. The volume of the suspension inoculum was between about 0.5% and about 1.0% of the volume of the alkylglycoside solution. […]. To determine the level of inhibition of growth, or reduction of growth based on a logarithmic scale, the initial concentration of viable microorganisms in each test preparation was estimated based on the concentration of microorganisms in each of the standardized inoculum as determined by the plate-count method. The inoculated containers were then incubated at about 22.5° C.±2.5. The growth or non-growth of the microorganisms in each culture/container were again determined at day 14 and day 28. The number of cfu present in each calculation was determined by the plate-count procedure standard in the art for the applicable intervals. The change in the orders of magnitude of bacterium and/or fungi was then determined by subtracting the first calculated log 10 values of the concentrations of cfu per mL present at the start or beginning (e.g., day 0), from the log 10 values of the concentration of cfu per mL for each microorganism at the applicable test intervals (e.g., day 14 and day 28; see Tables V, VI and VII).

[5] = system: Escherichia coli (ATCC No. 8739); assay: as above; assay type: cell-based; details: for Log reduction of cultures: PBS pH 7, 1 mg/mL PYY
Excerpt: as §1, §2, §3, §4, §5

[6] = system: Candida albicans (ATCC No. 10231); assay: as above; assay type: cell-based; details: for Log reduction of cultures: PBS pH 7, 1 mg/mL PYY; for Log reduction of microorganisms: PBS pH 7, […] BSA
Excerpt: as §1, §2, §3, §4, §5

[7] = system: Aspergillus niger (ATCC No. 16404); assay: as above; assay type: cell-based; details: for Log reduction of cultures: PBS pH 7, 1 mg/mL PYY; for Log reduction of microorganisms: PBS pH 7, […] BSA
Excerpt: as §1, §2, §3, §4, §5

[8] = no alkylsaccharide, cited from earlier work
[9] = system: human nasal epithelium; assay: Irritation of nasal mucosa on daily intranasal administration; details: 47 days
[10] = system: food intake; details: injection; cited from earlier work
[11] = system: blood glucose; assay: Intranasal insulin with […] TDM in anesthesia-induced hyperglycemia model; assay type: in vivo, mouse; details: minus […] TDM
Excerpt: Intranasal administration of drugs or agents are possible in animal models e.g. mice and rats, although the nasal opening in is very small. In the experiments and results described herein, an anesthesia-induced hyperglycemia model was used (described in Examples above). Hyperglycemic animals were induced by an intraperitoneal (IP) injection containing xylazine-ketamine and blood glucose levels were monitored over a period of time. Immediately after the xylazine-ketamine injection, there was an increase in the blood glucose levels as shown in FIG. 2 (closed dark circles), and blood glucose levels were about 450 mg/dl. […] Blood glucose levels peak to about 482 mg/dl by 30 minutes after the xylazine-ketamine injection (FIG. 2). […] At about the 75 minute time point, blood glucose levels gradually returned to the baseline level in a normoglycemic mouse, or about 80-100 mg/dl.

CCCCCCCCCCO[C@@H]1O[C@H](CO)[C@@H](O[C@H]2O[C@H](CO)[C@@H](O)[C@H](O)[C@H]2O)[C@H](O)[C@H]1O [Decyl Maltoside, decyl-β-D-maltoside]
level of D-glucose in blood after eye drops with surfactant plus glucagon, in words [1]: increase significantly
effect as absorption enhancer for ocular insulin (blood glucose lowering), in words ([2]; 0.5% enhancer): prompt and sustained fall in blood glucose levels

CCCCCCCCCCCCO[C@@H]1O[C@H](CO)[C@@H](O[C@H]2O[C@H](CO)[C@@H](O)[C@H](O)[C@H]2O)[C@H](O)[C@H]1O [Dodecyl Maltoside, n-Dodecyl-4-O-α-D-glucopyranosyl-β-D-glucopyranoside]
increase of oral bioavailability of phenylephrine in compressed tablets ([3]; dog, in vivo, po): up to 56%
effect as absorption enhancer for ocular insulin (blood glucose lowering), in words ([2]; 0.5% enhancer): equally effective
effect as absorption enhancer for ocular insulin (blood glucose lowering), in words ([2]; 0.5% enhancer, listed as dodecyl-β-D-maltoside): prompt and sustained fall in blood glucose levels
Log reduction of cultures ([4]; Day 14): ≧4.9 orders of orders of magnitude reduction
Log reduction of cultures ([4]; Day 28): ≧4.9 orders of orders of magnitude reduction
Log reduction of microorganisms ([4]; Day 14): ≧5.2 orders of orders of magnitude reduction
Log reduction of microorganisms ([4]; Day 28): ≧5.2 orders of orders of magnitude reduction
Log reduction of cultures ([5]; Day 14): ≧5 orders of orders of magnitude reduction
Log reduction of cultures ([5]; Day 28): ≧5 orders of orders of magnitude reduction
Log reduction of microorganisms ([5]; PBS pH 7, […] BSA, Day 28): 0.1 orders of orders of magnitude reduction
Log reduction of cultures ([6]; Day 14): ≧4.5 orders of orders of magnitude reduction
Log reduction of cultures ([6]; Day 28): ≧4.5 orders of orders of magnitude reduction
Log reduction of microorganisms ([6]; Day 14): 3.0 orders of orders of magnitude reduction
Log reduction of microorganisms ([6]; Day 28): ≧5.3 orders of orders of magnitude reduction
Log reduction of cultures ([7]; Day 14): 4.7 orders of orders of magnitude reduction
Log reduction of cultures ([7]; Day 28): 4.7 orders of orders of magnitude reduction
Log reduction of microorganisms ([7]; Day 14): 0.7 orders of orders of magnitude reduction
Log reduction of microorganisms ([7]; Day 28): No growth

CCCCCCCCCCCCCO[C@@H]1O[C@H](CO)[C@@H](O[C@H]2O[C@H](CO)[C@@H](O)[C@H](O)[C@H]2O)[C@H](O)[C@H]1O [Tridecyl Maltoside, tridecyl-β-D-maltoside]
level of D-glucose in blood after eye drops with surfactant plus glucagon, in words [1]: increase significantly
effect as absorption enhancer for ocular insulin (blood glucose lowering), in words ([2]; 0.5% enhancer): effective
effect as absorption enhancer for ocular insulin (blood glucose lowering), in words ([2]; […] enhancer): sustained for the two hour time course of the experiment

CCCCCCCOC1O[C@H](CO)[C@@H](O)[C@H](O)[C@H]1O (stereo partly shown) [heptylglucoside, heptylglucopyranoside]
effect as absorption enhancer for ocular insulin (blood glucose lowering), in words ([2]; 0.5% enhancer): ineffective

CCCCCCOC1O[C@H](CO)[C@@H](O)[C@H](O)[C@H]1O (stereo partly shown) [hexylglucoside, Hexylglucopyranoside]
effect as absorption enhancer for ocular insulin (blood glucose lowering), in words ([2]; 0.5% enhancer): ineffective

CCCCCCCCCOC1O[C@H](CO)[C@@H](O)[C@H](O)[C@H]1O (stereo partly shown) [nonylglucoside, nonylglucopyranoside]
effect as absorption enhancer for ocular insulin (blood glucose lowering), in words ([2]; 0.5% enhancer): effectively stimulated insulin absorption
blood glucose level before reduction (from) ([2]; eye drops insulin + 0.5% enhancer, initial value): 297 mg/dL
blood glucose level after reduction (to) ([2]; eye drops insulin + 0.5% enhancer, reduced value): 150 mg/dL

Cc1cc2c(s1)Nc1ccccc1N=C2N1CCN(C)CC1 [olanzapine, Olanzapine]
time to peak concentrations ([8]; following an oral dose): approximately 6 hours
dose metabolized by first pass before reaching the systemic circulation [8]: approximately 40%

CCCCCCCCCCCC(=O)OC[C@H]1O[C@H](O[C@]2(CO)O[C@H](CO)[C@@H](O)[C@@H]2O)[C@H](O)[C@@H](O)[C@@H]1O [sucrose dodecanoate, sucrose monododecanoate]
irritation of the nasal mucosa [9]: no observable irritation
increase of oral bioavailability of phenylephrine in compressed tablets ([3]; maximum over the loadings tested): up to 50%

PYY: gut hormone fragment peptide PYY3-36
reduction of food eaten versus usual [10]: 30%

decylsucrose
Blood Glucose Concentration ([2]; eye drops insulin + 0.5% enhancer, time 0 min): 313 mg/dL
Blood Glucose Concentration ([2]; eye drops insulin + 0.5% enhancer, time 120 min): 164 mg/dL

insulin alone: insulin (Humalog), same dosage, minus 0.25% TDM
return of blood glucose to normoglycemic levels [11]: never return to normoglycemic levels
time at which blood glucose levels start to decline ([11]; same dosage): ~120 minute time mark

Source: patent US20180000942A1, “COMPOSITIONS FOR DRUG ADMINISTRATION” (priority 2013, published 2018)
